In the supplement of paper PMC10307832:

Assays:
Assay in all cases: relative viability (nuclei count vs DMSO), 5 days (fraction); higher = more cells survive
NCI-H1666 = tested on: NCI-H1666
Summary of the method: (§1)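 Lung cancer cell lines in 1536-well plates got either a single drug or a fixed anchor-drug dose together with five library-drug doses (not always all listed) in √10 steps, by pin tool, on the day after seeding. Nuclei were counted after 5 days, and relative viability is the treated-to-vehicle ratio of nuclei counts. Values are medians of duplicate plates.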

EPLC-272H = tested on: EPLC-272H
Summary of the method: as §1

PC-3 [JPC-3] = tested on: PC-3 [JPC-3]
Summary of the method: as §1

EKVX = tested on: EKVX
Summary of the method: as §1

NCI-H2342 = tested on: NCI-H2342
Summary of the method: as §1

LU99A = tested on: LU99A
Summary of the method: as §1

HCC-827 = tested on: HCC-827
Summary of the method: as §1

NCI-H1975 = tested on: NCI-H1975
Summary of the method: as §1

NCI-H2085 = tested on: NCI-H2085
Summary of the method: as §1

LOU-NH91 = tested on: LOU-NH91
Summary of the method: as §1

201T = tested on: 201T
Summary of the method: as §1

HOP-62 = tested on: HOP-62
Summary of the method: as §1

H3255 = tested on: H3255
Summary of the method: as §1

NCI-H2087 = tested on: NCI-H2087
Summary of the method: as §1

NCI-H1437 = tested on: NCI-H1437
Summary of the method: as §1

HCC-44 = tested on: HCC-44
Summary of the method: as §1

NCI-H358 = tested on: NCI-H358
Summary of the method: as §1

LCLC-97TM1 = tested on: LCLC-97TM1
Summary of the method: as §1

SW 1573 = tested on: SW 1573
Summary of the method: as §1

NCI-H647 = tested on: NCI-H647
Summary of the method: as §1

COR-L 105 = tested on: COR-L 105
Summary of the method: as §1

NCI-H1395 = tested on: NCI-H1395
Summary of the method: as §1

BEN = tested on: BEN
Summary of the method: as §1

NCI-H2126 = tested on: NCI-H2126
Summary of the method: as §1

CC(C)Oc1cc(Nc2nc(N[C@@H](C)c3ccc(F)cn3)ncc2Cl)n[nH]1 [AZ23] + O=C(c1cc(Cc2n[nH]c(=O)c3ccccc23)ccc1F)N1CCN(C(=O)C2CC2)CC1 [Olaparib] (partner 8 µM)
relative viability (NCI-H1666; first compound 0.01 µM): 0.718 | relative viability (NCI-H1666; first compound 0.03162 µM): 0.699 | relative viability (NCI-H1666; first compound 0.3162 µM): 0.759 | relative viability (EPLC-272H; first compound 0.03162 µM): 0.563 | relative viability (EPLC-272H; first compound 0.3162 µM): 0.901 | relative viability (PC-3 [JPC-3]; first compound 0.01 µM): 1.35 | relative viability (PC-3 [JPC-3]; first compound 0.03162 µM): 1.41 | relative viability (PC-3 [JPC-3]; first compound 0.3162 µM): 1.17 | relative viability (EKVX; first compound 0.01 µM): 0.912 | relative viability (EKVX; first compound 0.03162 µM): 0.97 | relative viability (EKVX; first compound 0.3162 µM): 0.895 | relative viability (NCI-H2342; first compound 0.01 µM): 0.413 | relative viability (NCI-H2342; first compound 0.03162 µM): 0.473 | relative viability (NCI-H2342; first compound 0.3162 µM): 0.399 | relative viability (LU99A; first compound 0.01 µM): 0.233 | relative viability (LU99A; first compound 0.03162 µM): 0.237 | relative viability (LU99A; first compound 0.3162 µM): 0.328 | relative viability (HCC-827; first compound 0.01 µM): 0.665 | relative viability (HCC-827; first compound 0.03162 µM): 0.764 | relative viability (HCC-827; first compound 0.3162 µM): 0.712 | relative viability (NCI-H1975; first compound 0.01 µM): 0.88 | relative viability (NCI-H1975; first compound 0.03162 µM): 0.904 | relative viability (NCI-H1975; first compound 0.3162 µM): 0.822 | relative viability (NCI-H2085; first compound 0.01 µM): 0.784 | relative viability (NCI-H2085; first compound 0.03162 µM): 0.884 | relative viability (NCI-H2085; first compound 0.3162 µM): 0.791 | relative viability (LOU-NH91; first compound 0.01 µM): 0.958 | relative viability (LOU-NH91; first compound 0.03162 µM): 0.961 | relative viability (LOU-NH91; first compound 0.3162 µM): 0.94 | relative viability (201T; first compound 0.01 µM): 0.899 | relative viability (201T; first compound 0.03162 µM): 0.872 | relative viability (201T; first compound 0.3162 µM): 0.85 | relative viability (HOP-62; first compound 0.03162 µM): 0.477 | relative viability (HOP-62; first compound 0.3162 µM): 0.379 | relative viability (H3255; first compound 0.01 µM): 0.524 | relative viability (H3255; first compound 0.03162 µM): 0.581 | relative viability (H3255; first compound 0.3162 µM): 0.542 | relative viability (NCI-H2087; first compound 0.01 µM): 0.819 | relative viability (NCI-H2087; first compound 0.03162 µM): 0.73 | relative viability (NCI-H2087; first compound 0.3162 µM): 0.642 | relative viability (NCI-H1437; first compound 0.01 µM): 0.714 | relative viability (NCI-H1437; first compound 0.03162 µM): 0.618 | relative viability (NCI-H1437; first compound 0.3162 µM): 0.648 | relative viability (HCC-44; first compound 0.01 µM): 1.04 | relative viability (HCC-44; first compound 0.03162 µM): 1.04 | relative viability (HCC-44; first compound 0.3162 µM): 0.979 | relative viability (NCI-H358; first compound 0.01 µM): 0.72 | relative viability (NCI-H358; first compound 0.03162 µM): 0.667 | relative viability (NCI-H358; first compound 0.3162 µM): 0.664 | relative viability (LCLC-97TM1; first compound 0.01 µM): 0.299 | relative viability (LCLC-97TM1; first compound 0.03162 µM): 0.526 | relative viability (LCLC-97TM1; first compound 0.3162 µM): 0.416 | relative viability (SW 1573; first compound 0.01 µM): 0.649 | relative viability (SW 1573; first compound 0.03162 µM): 0.613 | relative viability (SW 1573; first compound 0.3162 µM): 0.508 | relative viability (NCI-H647; first compound 0.01 µM): 0.68 | relative viability (NCI-H647; first compound 0.03162 µM): 0.687 | relative viability (NCI-H647; first compound 0.3162 µM): 0.812 | relative viability (COR-L 105; first compound 0.01 µM): 0.609 | relative viability (COR-L 105; first compound 0.03162 µM): 0.819 | relative viability (COR-L 105; first compound 0.3162 µM): 0.665 | relative viability (NCI-H1395; first compound 0.03162 µM): 0.424 | relative viability (NCI-H1395; first compound 0.3162 µM): 0.452 | relative viability (BEN; first compound 0.01 µM): 1.03 | relative viability (BEN; first compound 0.03162 µM): 1.24 | relative viability (BEN; first compound 0.3162 µM): 1.16 | relative viability (NCI-H2126; first compound 0.01 µM): 0.996 | relative viability (NCI-H2126; first compound 0.03162 µM): 0.924 | relative viability (NCI-H2126; first compound 0.3162 µM): 0.888

CC(C)Oc1cc(Nc2nc(N[C@@H](C)c3ccc(F)cn3)ncc2Cl)n[nH]1 [AZ23] + CC(=O)Nc1cccc(-n2c(=O)n(C3CC3)c(=O)c3c(Nc4ccc(I)cc4F)n(C)c(=O)c(C)c32)c1 [Trametinib] (partner 0.02 µM)
relative viability (NCI-H1666; first compound 0.01 µM): 0.804 | relative viability (NCI-H1666; first compound 0.03162 µM): 0.847 | relative viability (NCI-H1666; first compound 0.3162 µM): 0.903 | relative viability (EPLC-272H; first compound 0.03162 µM): 0.267 | relative viability (EPLC-272H; first compound 0.3162 µM): 0.274 | relative viability (PC-3 [JPC-3]; first compound 0.01 µM): 0.612 | relative viability (PC-3 [JPC-3]; first compound 0.03162 µM): 0.787 | relative viability (PC-3 [JPC-3]; first compound 0.3162 µM): 0.735 | relative viability (EKVX; first compound 0.01 µM): 0.346 | relative viability (EKVX; first compound 0.03162 µM): 0.351 | relative viability (EKVX; first compound 0.3162 µM): 0.332 | relative viability (NCI-H2342; first compound 0.01 µM): 0.752 | relative viability (NCI-H2342; first compound 0.03162 µM): 0.828 | relative viability (NCI-H2342; first compound 0.3162 µM): 0.72 | relative viability (LU99A; first compound 0.01 µM): 0.519 | relative viability (LU99A; first compound 0.03162 µM): 0.708 | relative viability (LU99A; first compound 0.3162 µM): 0.536 | relative viability (HCC-827; first compound 0.01 µM): 0.456 | relative viability (HCC-827; first compound 0.03162 µM): 0.563 | relative viability (HCC-827; first compound 0.3162 µM): 0.557 | relative viability (NCI-H1975; first compound 0.01 µM): 0.387 | relative viability (NCI-H1975; first compound 0.03162 µM): 0.495 | relative viability (NCI-H1975; first compound 0.3162 µM): 0.302 | relative viability (NCI-H2085; first compound 0.01 µM): 0.477 | relative viability (NCI-H2085; first compound 0.03162 µM): 0.746 | relative viability (NCI-H2085; first compound 0.3162 µM): 0.538 | relative viability (LOU-NH91; first compound 0.01 µM): 0.784 | relative viability (LOU-NH91; first compound 0.03162 µM): 0.823 | relative viability (LOU-NH91; first compound 0.3162 µM): 0.784 | relative viability (201T; first compound 0.01 µM): 0.716 | relative viability (201T; first compound 0.03162 µM): 0.731 | relative viability (201T; first compound 0.3162 µM): 0.649 | relative viability (HOP-62; first compound 0.01 µM): 0.377 | relative viability (HOP-62; first compound 0.03162 µM): 0.382 | relative viability (HOP-62; first compound 0.3162 µM): 0.356 | relative viability (H3255; first compound 0.01 µM): 0.595 | relative viability (H3255; first compound 0.03162 µM): 0.609 | relative viability (H3255; first compound 0.3162 µM): 0.632 | relative viability (NCI-H2087; first compound 0.01 µM): 0.189 | relative viability (NCI-H2087; first compound 0.03162 µM): 0.196 | relative viability (NCI-H2087; first compound 0.3162 µM): 0.187 | relative viability (NCI-H1437; first compound 0.01 µM): 0.503 | relative viability (NCI-H1437; first compound 0.03162 µM): 0.512 | relative viability (NCI-H1437; first compound 0.3162 µM): 0.651 | relative viability (HCC-44; first compound 0.01 µM): 1.1 | relative viability (HCC-44; first compound 0.03162 µM): 0.92 | relative viability (HCC-44; first compound 0.3162 µM): 1.05 | relative viability (NCI-H358; first compound 0.01 µM): 0.116 | relative viability (NCI-H358; first compound 0.03162 µM): 0.137 | relative viability (NCI-H358; first compound 0.3162 µM): 0.124 | relative viability (LCLC-97TM1; first compound 0.01 µM): 0.238 | relative viability (LCLC-97TM1; first compound 0.03162 µM): 0.209 | relative viability (LCLC-97TM1; first compound 0.3162 µM): 0.189 | relative viability (SW 1573; first compound 0.01 µM): 0.693 | relative viability (SW 1573; first compound 0.03162 µM): 0.604 | relative viability (SW 1573; first compound 0.3162 µM): 0.458 | relative viability (NCI-H647; first compound 0.01 µM): 0.61 | relative viability (NCI-H647; first compound 0.03162 µM): 0.58 | relative viability (NCI-H647; first compound 0.3162 µM): 0.509 | relative viability (COR-L 105; first compound 0.01 µM): 0.432 | relative viability (COR-L 105; first compound 0.03162 µM): 0.371 | relative viability (COR-L 105; first compound 0.3162 µM): 0.478 | relative viability (NCI-H1395; first compound 0.03162 µM): 1.06 | relative viability (NCI-H1395; first compound 0.3162 µM): 1.06 | relative viability (BEN; first compound 0.01 µM): 0.909 | relative viability (BEN; first compound 0.03162 µM): 1.14 | relative viability (BEN; first compound 0.3162 µM): 1.09 | relative viability (NCI-H2126; first compound 0.01 µM): 0.574 | relative viability (NCI-H2126; first compound 0.03162 µM): 0.556 | relative viability (NCI-H2126; first compound 0.3162 µM): 0.532
